The experiment relates to CD2F1 mice, L1210 leukemia ip, survival T/C. Description: NCI In Vivo Anticancer Drug Screen. Data for tumor model L1210 Leukemia (intraperitoneal) in CD2F1 (CDF1) mice. The note with it: higher = longer survival. The gist of the method: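 Vehicle-treated tumor-bearing mice served as controls (C) for compound-treated mice (T). Reported figure is T divided by C.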

Consider ten compounds from PubChem BioAssay AID256 (DTP/NCI, 2004).

SMILES strings stand for the structures. Values joined by “and” are separate entries in the source; they are usually repeats but may differ in a detail not shown here. Equal values may be shown once. Inconclusive results and toxic doses are left out.

For `CC(=O)NO`, the T/C is 104 % of control (endpoint: median survival time, dose: 25.0 mg/kg/injection, schedule: Q03HX024 (ip), vehicle: water); 101 % of control (endpoint: median survival time, dose: 50.0 mg/kg/injection, schedule: Q01DX009 (ip), vehicle: water); 105 % of control (endpoint: median survival time, dose: 50.0 mg/kg/injection, schedule: Q03HX024 (ip), vehicle: water); 111 % of control (endpoint: median survival time, dose: 62.5 mg/kg/injection, schedule: Q01DX009 (ip), vehicle: saline); 99 % of control (endpoint: median survival time, dose: 62.5 mg/kg/injection, schedule: Q01DX009 (ip), vehicle: water); 105 % of control (endpoint: median survival time, dose: 100.0 mg/kg/injection, schedule: Q01DX009 (ip), vehicle: water). Besides, the T/C was 114 % of control (endpoint: median survival time, dose: 100.0 mg/kg/injection, schedule: Q03HX024 (ip), vehicle: water); 111 % of control (endpoint: median survival time, dose: 125.0 mg/kg/injection, schedule: Q01DX009 (ip), vehicle: saline); 101 % of control (endpoint: median survival time, dose: 125.0 mg/kg/injection, schedule: Q01DX009 (ip), vehicle: water); 118 % of control (endpoint: median survival time, dose: 250.0 mg/kg/injection, schedule: Q01DX009 (ip), vehicle: saline); 111 % of control (endpoint: median survival time, dose: 250.0 mg/kg/injection, schedule: Q01DX009 (ip), vehicle: water); 152 % of control (endpoint: median survival time, dose: 400.0 mg/kg/injection, schedule: Q01DX009 (ip), vehicle: water). The T/C was 241 % of control (endpoint: median survival time, dose: 400.0 mg/kg/injection, schedule: Q03HX024 (ip), vehicle: water); 152 % of control (endpoint: median survival time, dose: 500.0 mg/kg/injection, schedule: Q01DX009 (ip), vehicle: saline); 173 % of control and 183 % of control (endpoint: median survival time, dose: 800.0 mg/kg/injection, schedule: Q01DX009 (ip), vehicle: water); 172 % of control (endpoint: median survival time, dose: 1000.0 mg/kg/injection, schedule: Q01DX009 (ip), vehicle: saline).

Regarding `C/C(=N\O)c1ccccn1`, the T/C is 95 % of control (endpoint: mean survival time, dose: 25.0 mg/kg/injection, schedule: Q01DX009 (ip), vehicle: Klucel (hydroxypropylcellulose) (HPC)); 100 % of control (endpoint: mean survival time, dose: 50.0 mg/kg/injection, schedule: Q01DX009 (ip), vehicle: Klucel (hydroxypropylcellulose) (HPC)); 90 % of control (endpoint: mean survival time, dose: 100.0 mg/kg/injection, schedule: Q01DX009 (ip), vehicle: Klucel (hydroxypropylcellulose) (HPC)); 95 % of control (endpoint: mean survival time, dose: 200.0 mg/kg/injection, schedule: Q01DX009 (ip), vehicle: Klucel (hydroxypropylcellulose) (HPC)); 105 % of control (endpoint: mean survival time, dose: 400.0 mg/kg/injection, schedule: Q01DX009 (ip), vehicle: Klucel (hydroxypropylcellulose) (HPC)).

`CCN(CC)CCCC(C)NS(=O)(=O)c1cccc2c(N(C)C)cccc12` (stereo unspecified): the T/C reads like this: (endpoint: mean survival time, dose: 25.0 mg/kg/injection, schedule: Q01DX009 (ip), vehicle: water) 102 % of control; (endpoint: mean survival time, dose: 50.0 mg/kg/injection, schedule: Q01DX009 (ip), vehicle: water) 98 % of control; (endpoint: mean survival time, dose: 100.0 mg/kg/injection, schedule: Q01DX009 (ip), vehicle: water) 96 % of control.

Consider `CCCNCCN(CC)CC`, for which the T/C is 96 % of control (endpoint: mean survival time, dose: 50.0 mg/kg/injection, schedule: Q01DX009 (ip), vehicle: saline); 93 % of control (endpoint: mean survival time, dose: 100.0 mg/kg/injection, schedule: Q01DX009 (ip), vehicle: saline); 100 % of control (endpoint: mean survival time, dose: 100.0 mg/kg/injection, schedule: Q04DX003 (ip), vehicle: saline); 96 % of control (endpoint: mean survival time, dose: 200.0 mg/kg/injection, schedule: Q01DX009 (ip), vehicle: saline); 96 % of control (endpoint: mean survival time, dose: 200.0 mg/kg/injection, schedule: Q04DX003 (ip), vehicle: saline).

In the case of `COc1c(O)cc2c(c1OC)-c1ccc(SC)c(=O)cc1C(NC(C)=O)CC2` (stereo unspecified), the T/C was 110 % of control (endpoint: median survival time, dose: 0.06 mg/kg/injection, schedule: Q01DX009 (ip), vehicle: Klucel (hydroxypropylcellulose) (HPC)); 110 % of control (endpoint: median survival time, dose: 0.12 mg/kg/injection, schedule: Q01DX009 (ip), vehicle: Klucel (hydroxypropylcellulose) (HPC)); 110 % of control (endpoint: median survival time, dose: 0.25 mg/kg/injection, schedule: Q01DX009 (ip), vehicle: Klucel (hydroxypropylcellulose) (HPC)); 113 % of control (endpoint: median survival time, dose: 0.31 mg/kg/injection, schedule: Q01DX009 (ip), vehicle: DMSO); 118 % of control (endpoint: median survival time, dose: 0.31 mg/kg/injection, schedule: Q01DX009 (ip), vehicle: Klucel (hydroxypropylcellulose) (HPC)); 121 % of control (endpoint: median survival time, dose: 0.5 mg/kg/injection, schedule: Q01DX009 (ip), vehicle: Klucel (hydroxypropylcellulose) (HPC)). Also, the T/C reads like this: (endpoint: median survival time, dose: 0.63 mg/kg/injection, schedule: Q01DX009 (ip), vehicle: DMSO) 124 % of control; (endpoint: median survival time, dose: 1.0 mg/kg/injection, schedule: Q01DX009 (ip), vehicle: Klucel (hydroxypropylcellulose) (HPC)) 105 % of control; (endpoint: median survival time, dose: 2.5 mg/kg/injection, schedule: Q01DX009 (oral), vehicle: DMSO) 108 % of control; (endpoint: median survival time, dose: 5.0 mg/kg/injection, schedule: Q01DX005 (ip), vehicle: Klucel (hydroxypropylcellulose) (HPC)) 164 % of control; (endpoint: median survival time, dose: 5.0 mg/kg/injection, schedule: Q01DX009 (ip), vehicle: DMSO) 172 % of control; (endpoint: median survival time, dose: 5.0 mg/kg/injection, schedule: Q01DX009 (oral), vehicle: DMSO) 107 % of control. Also, the T/C is 165 % of control (endpoint: median survival time, dose: 10.0 mg/kg/injection, schedule: Q01DX009 (ip), vehicle: DMSO); 116 % of control (endpoint: median survival time, dose: 10.0 mg/kg/injection, schedule: Q01DX009 (oral), vehicle: DMSO); 158 % of control (endpoint: median survival time, dose: 20.0 mg/kg/injection, schedule: Q01DX005 (ip), vehicle: Klucel (hydroxypropylcellulose) (HPC)); 109 % of control (endpoint: median survival time, dose: 20.0 mg/kg/injection, schedule: Q01DX009 (oral), vehicle: DMSO); 107 % of control (endpoint: median survival time, dose: 40.0 mg/kg/injection, schedule: Q01DX009 (oral), vehicle: DMSO).

For the compound `Nc1[nH]c(=O)ncc1C(=O)NC(CO)C(=O)O` (stereo unspecified), the T/C is, setting by setting: (endpoint: mean survival time, dose: 6.25 mg/kg/injection, schedule: Q01DX009 (ip), vehicle: saline with Tween-80) 100 % of control; (endpoint: mean survival time, dose: 12.5 mg/kg/injection, schedule: Q01DX009 (ip), vehicle: saline with Tween-80) 102 % of control; (endpoint: mean survival time, dose: 25.0 mg/kg/injection, schedule: Q01DX009 (ip), vehicle: saline with Tween-80) 104 % of control.

In the case of `Cc1cn(C2CC(O)C(CO)O2)c(=O)nc1NC1CCCCCCCCCCC1` (stereo unspecified), the T/C (endpoint: median survival time, dose: 12.5 mg/kg/injection, schedule: Q01DX005 (ip), vehicle: distilled water + Tween-80) was 103 % of control; the T/C (endpoint: median survival time, dose: 25.0 mg/kg/injection, schedule: Q01DX005 (ip), vehicle: distilled water + Tween-80) was 102 % of control; the T/C (endpoint: median survival time, dose: 50.0 mg/kg/injection, schedule: Q01DX005 (ip), vehicle: distilled water + Tween-80) is 96 % of control; the T/C (endpoint: median survival time, dose: 100.0 mg/kg/injection, schedule: Q01DX005 (ip), vehicle: distilled water + Tween-80) was 89 % of control.

For `CN(C)C(=S)Oc1ccc(S(=O)(=O)F)cc1F`, the T/C was 93 % of control (endpoint: mean survival time, dose: 100.0 mg/kg/injection, schedule: Q04DX002 (ip), vehicle: saline with Tween-80); 93 % of control (endpoint: mean survival time, dose: 200.0 mg/kg/injection, schedule: Q04DX002 (ip), vehicle: saline with Tween-80); 104 % of control (endpoint: mean survival time, dose: 400.0 mg/kg/injection, schedule: Q04DX002 (ip), vehicle: saline with Tween-80).

For `O=C(NCc1ccco1)C1COc2ccccc2O1` (stereo unspecified), the T/C was 103 % of control (endpoint: median survival time, dose: 25.0 mg/kg/injection, schedule: Q01DX009 (ip), vehicle: Klucel (hydroxypropylcellulose) (HPC)); 101 % of control (endpoint: median survival time, dose: 50.0 mg/kg/injection, schedule: Q01DX009 (ip), vehicle: Klucel (hydroxypropylcellulose) (HPC)); 103 % of control (endpoint: median survival time, dose: 100.0 mg/kg/injection, schedule: Q01DX009 (ip), vehicle: Klucel (hydroxypropylcellulose) (HPC)).

With `Cc1cc(N=Nc2ccc(S(=O)(=O)[O-])cc2)cc(C(=O)[O-])c1[OH2+].Cc1cc(N=Nc2ccc(S(=O)(=O)[O-])cc2)cc(C(=O)[O-])c1[OH2+].NC1CCCCC1N.[Na+].[Pt+4]`, the T/C is, setting by setting: (endpoint: median survival time, dose: 6.25 mg/kg/injection, schedule: Q04DX003 (ip), vehicle: saline with Tween-80) 172 % of control; (endpoint: median survival time, dose: 6.25 mg/kg/injection, schedule: Q04DX003 (ip), vehicle: saline) 172 % of control; (endpoint: median survival time, dose: 12.5 mg/kg/injection, schedule: Q04DX003 (ip), vehicle: saline with Tween-80) 344 % of control; (endpoint: median survival time, dose: 12.5 mg/kg/injection, schedule: Q04DX003 (ip), vehicle: saline) 253 % of control; (endpoint: median survival time, dose: 25.0 mg/kg/injection, schedule: Q04DX003 (ip), vehicle: saline with Tween-80) 313 % of control; (endpoint: median survival time, dose: 25.0 mg/kg/injection, schedule: Q04DX003 (ip), vehicle: saline) 289 % of control. For the same compound, the T/C (endpoint: median survival time, dose: 50.0 mg/kg/injection, schedule: Q04DX003 (ip), vehicle: saline with Tween-80) was 106 % of control.
